Test results reported in ChEMBL document CHEMBL1152560, “Substituted 2-arylbenzothiazoles as kinase inhibitors: hit-to-lead optimization” (Bioorg Med Chem, 2009).

Tests used:
[1] = target: T1, Testis-specific serine/threonine-protein kinase 1 (Homo sapiens) (UniProt Q9BXA7); test: Residual activity of TSSK1 at 0.1 uM by microplate scintillation counting
T1 sequence (whole entry): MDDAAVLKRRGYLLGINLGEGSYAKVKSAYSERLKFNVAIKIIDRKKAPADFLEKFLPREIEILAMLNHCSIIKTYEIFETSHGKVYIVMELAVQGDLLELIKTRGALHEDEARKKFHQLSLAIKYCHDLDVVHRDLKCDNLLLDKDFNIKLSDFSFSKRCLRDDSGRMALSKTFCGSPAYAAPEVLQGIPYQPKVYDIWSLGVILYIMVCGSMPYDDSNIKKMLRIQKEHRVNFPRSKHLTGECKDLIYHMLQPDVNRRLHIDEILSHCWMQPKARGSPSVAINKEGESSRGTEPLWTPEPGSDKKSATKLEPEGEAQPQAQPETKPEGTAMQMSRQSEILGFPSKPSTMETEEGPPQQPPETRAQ

[2] = target: Tyrosine-protein kinase BTK (Homo sapiens) (UniProt Q06187); test: Residual activity of BTK at 1 uM by microplate scintillation counting
Sequence of Tyrosine-protein kinase BTK (Homo sapiens) (Q06187 whole entry): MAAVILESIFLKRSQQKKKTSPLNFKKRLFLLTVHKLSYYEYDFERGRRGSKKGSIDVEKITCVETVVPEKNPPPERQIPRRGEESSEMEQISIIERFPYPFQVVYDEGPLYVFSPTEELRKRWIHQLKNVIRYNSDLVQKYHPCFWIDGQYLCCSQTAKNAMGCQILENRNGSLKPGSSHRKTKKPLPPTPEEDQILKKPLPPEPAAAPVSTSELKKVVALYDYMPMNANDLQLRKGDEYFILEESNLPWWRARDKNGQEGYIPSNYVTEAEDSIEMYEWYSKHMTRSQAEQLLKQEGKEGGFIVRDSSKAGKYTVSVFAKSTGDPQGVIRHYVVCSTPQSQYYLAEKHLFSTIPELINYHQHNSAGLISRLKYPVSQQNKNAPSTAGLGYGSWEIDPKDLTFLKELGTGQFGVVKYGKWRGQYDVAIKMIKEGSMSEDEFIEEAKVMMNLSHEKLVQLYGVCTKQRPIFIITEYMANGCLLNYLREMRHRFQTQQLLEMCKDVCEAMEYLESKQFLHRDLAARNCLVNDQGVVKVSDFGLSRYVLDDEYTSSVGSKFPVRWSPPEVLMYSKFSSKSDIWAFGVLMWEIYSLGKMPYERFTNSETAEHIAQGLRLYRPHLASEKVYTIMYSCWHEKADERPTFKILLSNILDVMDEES

[3] = target: Mitogen-activated protein kinase 1 (Homo sapiens) (UniProt P28482); test: Residual activity of ERK2 at 0.1 uM by microplate scintillation counting
Sequence of Mitogen-activated protein kinase 1 (Homo sapiens) (P28482 whole entry): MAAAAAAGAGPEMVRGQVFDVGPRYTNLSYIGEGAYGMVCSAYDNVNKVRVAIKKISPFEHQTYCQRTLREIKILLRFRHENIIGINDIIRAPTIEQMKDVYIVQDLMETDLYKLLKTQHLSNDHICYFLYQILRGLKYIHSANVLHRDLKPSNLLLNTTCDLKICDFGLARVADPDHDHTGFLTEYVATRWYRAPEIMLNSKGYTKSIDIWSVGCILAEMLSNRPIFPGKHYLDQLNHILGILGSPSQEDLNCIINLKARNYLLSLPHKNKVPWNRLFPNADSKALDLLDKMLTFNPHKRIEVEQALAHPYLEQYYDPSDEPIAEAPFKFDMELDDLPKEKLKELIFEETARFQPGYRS

[4] = target: T2, Ephrin type-A receptor 1 (Homo sapiens) (UniProt P21709); test: Residual activity of EPHA1 at 10 uM by microplate scintillation counting
T2 sequence (whole entry): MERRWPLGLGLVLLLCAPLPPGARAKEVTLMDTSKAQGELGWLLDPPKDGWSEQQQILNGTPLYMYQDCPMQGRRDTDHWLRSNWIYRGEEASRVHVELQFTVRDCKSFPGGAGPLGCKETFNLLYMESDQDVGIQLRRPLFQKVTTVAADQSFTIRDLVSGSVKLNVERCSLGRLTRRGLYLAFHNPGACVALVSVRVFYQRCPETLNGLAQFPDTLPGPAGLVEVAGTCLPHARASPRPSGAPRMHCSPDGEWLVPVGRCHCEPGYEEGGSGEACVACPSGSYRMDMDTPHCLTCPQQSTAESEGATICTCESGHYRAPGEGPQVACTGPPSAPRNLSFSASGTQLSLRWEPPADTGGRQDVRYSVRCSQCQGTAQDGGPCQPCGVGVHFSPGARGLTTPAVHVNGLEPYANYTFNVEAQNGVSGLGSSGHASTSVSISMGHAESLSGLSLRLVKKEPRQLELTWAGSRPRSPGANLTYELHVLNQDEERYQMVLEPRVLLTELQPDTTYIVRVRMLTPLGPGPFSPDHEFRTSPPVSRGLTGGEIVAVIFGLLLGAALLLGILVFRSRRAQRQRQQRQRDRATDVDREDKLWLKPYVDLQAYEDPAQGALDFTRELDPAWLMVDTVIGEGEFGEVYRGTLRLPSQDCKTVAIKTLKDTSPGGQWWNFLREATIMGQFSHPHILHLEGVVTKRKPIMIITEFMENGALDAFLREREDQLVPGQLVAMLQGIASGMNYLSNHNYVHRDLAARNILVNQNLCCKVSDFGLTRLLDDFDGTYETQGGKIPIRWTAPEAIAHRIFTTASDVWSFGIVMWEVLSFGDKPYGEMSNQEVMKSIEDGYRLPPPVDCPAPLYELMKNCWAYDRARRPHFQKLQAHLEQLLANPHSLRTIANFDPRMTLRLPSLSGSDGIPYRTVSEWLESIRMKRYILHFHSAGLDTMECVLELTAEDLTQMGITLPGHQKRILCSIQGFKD

[5] = target: Calcium/calmodulin-dependent protein kinase type II subunit alpha (Homo sapiens) (UniProt Q9UQM7); test: Residual activity of CAMK2A at 1 uM by microplate scintillation counting
Sequence of Calcium/calmodulin-dependent protein kinase type II subunit alpha (Homo sapiens) (Q9UQM7 whole entry): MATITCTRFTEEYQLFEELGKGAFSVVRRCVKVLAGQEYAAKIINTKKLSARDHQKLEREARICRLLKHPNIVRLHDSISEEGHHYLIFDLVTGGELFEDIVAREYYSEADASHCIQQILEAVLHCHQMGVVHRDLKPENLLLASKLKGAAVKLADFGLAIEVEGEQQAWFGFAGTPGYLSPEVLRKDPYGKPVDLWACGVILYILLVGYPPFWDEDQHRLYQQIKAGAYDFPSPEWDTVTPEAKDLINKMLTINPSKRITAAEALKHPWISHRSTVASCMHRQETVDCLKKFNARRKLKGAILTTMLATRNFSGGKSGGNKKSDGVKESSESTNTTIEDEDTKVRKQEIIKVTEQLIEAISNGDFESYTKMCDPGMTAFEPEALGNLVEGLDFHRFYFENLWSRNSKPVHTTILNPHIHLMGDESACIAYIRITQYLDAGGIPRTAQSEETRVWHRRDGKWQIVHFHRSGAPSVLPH

[6] = target: Serine/threonine-protein kinase N2 (Homo sapiens) (UniProt Q16513); test: Residual activity of PRK2 at 1 uM by microplate scintillation counting
Sequence of Serine/threonine-protein kinase N2 (Homo sapiens) (Q16513 whole entry, looked up): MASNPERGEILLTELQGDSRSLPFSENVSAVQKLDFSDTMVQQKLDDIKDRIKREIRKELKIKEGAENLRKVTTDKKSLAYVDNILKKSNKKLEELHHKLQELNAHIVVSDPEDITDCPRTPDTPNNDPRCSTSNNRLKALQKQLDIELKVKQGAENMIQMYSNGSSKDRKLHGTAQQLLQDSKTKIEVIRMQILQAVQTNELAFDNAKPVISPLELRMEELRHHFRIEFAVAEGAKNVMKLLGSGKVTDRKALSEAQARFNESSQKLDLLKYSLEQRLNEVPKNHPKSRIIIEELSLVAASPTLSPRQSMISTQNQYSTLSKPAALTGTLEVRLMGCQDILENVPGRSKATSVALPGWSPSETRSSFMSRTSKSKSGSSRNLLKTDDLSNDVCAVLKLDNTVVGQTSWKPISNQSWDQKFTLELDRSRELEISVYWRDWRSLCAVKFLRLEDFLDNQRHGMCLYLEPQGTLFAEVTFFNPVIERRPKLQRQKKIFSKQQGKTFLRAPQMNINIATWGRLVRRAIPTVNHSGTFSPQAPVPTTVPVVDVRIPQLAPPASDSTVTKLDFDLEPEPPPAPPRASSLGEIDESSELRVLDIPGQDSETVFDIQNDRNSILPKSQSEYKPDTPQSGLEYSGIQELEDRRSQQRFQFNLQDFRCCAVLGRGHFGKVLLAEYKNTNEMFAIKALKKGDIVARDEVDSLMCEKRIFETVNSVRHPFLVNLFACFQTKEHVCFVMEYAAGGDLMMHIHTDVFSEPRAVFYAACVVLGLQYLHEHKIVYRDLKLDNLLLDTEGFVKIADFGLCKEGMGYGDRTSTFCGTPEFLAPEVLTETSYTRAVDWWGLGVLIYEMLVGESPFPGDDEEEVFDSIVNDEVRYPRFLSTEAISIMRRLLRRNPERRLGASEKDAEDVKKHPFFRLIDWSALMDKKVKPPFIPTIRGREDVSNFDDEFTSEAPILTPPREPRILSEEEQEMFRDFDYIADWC

[7] = target: Casein kinase II subunit alpha' (Homo sapiens) (UniProt P19784); test: Residual activity of CK2alpha2 at 10 uM by microplate scintillation counting
Sequence of Casein kinase II subunit alpha' (Homo sapiens) (P19784 whole entry, looked up): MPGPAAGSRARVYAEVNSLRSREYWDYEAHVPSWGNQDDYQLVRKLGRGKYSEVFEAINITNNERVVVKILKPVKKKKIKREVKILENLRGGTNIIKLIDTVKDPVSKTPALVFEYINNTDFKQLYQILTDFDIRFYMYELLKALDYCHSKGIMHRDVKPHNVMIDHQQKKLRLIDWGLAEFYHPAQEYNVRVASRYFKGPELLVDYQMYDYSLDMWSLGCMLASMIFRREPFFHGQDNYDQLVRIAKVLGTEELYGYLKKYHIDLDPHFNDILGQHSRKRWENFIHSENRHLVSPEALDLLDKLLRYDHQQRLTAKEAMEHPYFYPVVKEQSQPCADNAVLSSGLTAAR

[8] = target: CDC42BPA protein (Homo sapiens) (UniProt B9EGA7); test: Residual activity of CDC42BPA at 10 uM by microplate scintillation counting
Sequence of CDC42BPA protein (Homo sapiens) (B9EGA7 as listed by the source): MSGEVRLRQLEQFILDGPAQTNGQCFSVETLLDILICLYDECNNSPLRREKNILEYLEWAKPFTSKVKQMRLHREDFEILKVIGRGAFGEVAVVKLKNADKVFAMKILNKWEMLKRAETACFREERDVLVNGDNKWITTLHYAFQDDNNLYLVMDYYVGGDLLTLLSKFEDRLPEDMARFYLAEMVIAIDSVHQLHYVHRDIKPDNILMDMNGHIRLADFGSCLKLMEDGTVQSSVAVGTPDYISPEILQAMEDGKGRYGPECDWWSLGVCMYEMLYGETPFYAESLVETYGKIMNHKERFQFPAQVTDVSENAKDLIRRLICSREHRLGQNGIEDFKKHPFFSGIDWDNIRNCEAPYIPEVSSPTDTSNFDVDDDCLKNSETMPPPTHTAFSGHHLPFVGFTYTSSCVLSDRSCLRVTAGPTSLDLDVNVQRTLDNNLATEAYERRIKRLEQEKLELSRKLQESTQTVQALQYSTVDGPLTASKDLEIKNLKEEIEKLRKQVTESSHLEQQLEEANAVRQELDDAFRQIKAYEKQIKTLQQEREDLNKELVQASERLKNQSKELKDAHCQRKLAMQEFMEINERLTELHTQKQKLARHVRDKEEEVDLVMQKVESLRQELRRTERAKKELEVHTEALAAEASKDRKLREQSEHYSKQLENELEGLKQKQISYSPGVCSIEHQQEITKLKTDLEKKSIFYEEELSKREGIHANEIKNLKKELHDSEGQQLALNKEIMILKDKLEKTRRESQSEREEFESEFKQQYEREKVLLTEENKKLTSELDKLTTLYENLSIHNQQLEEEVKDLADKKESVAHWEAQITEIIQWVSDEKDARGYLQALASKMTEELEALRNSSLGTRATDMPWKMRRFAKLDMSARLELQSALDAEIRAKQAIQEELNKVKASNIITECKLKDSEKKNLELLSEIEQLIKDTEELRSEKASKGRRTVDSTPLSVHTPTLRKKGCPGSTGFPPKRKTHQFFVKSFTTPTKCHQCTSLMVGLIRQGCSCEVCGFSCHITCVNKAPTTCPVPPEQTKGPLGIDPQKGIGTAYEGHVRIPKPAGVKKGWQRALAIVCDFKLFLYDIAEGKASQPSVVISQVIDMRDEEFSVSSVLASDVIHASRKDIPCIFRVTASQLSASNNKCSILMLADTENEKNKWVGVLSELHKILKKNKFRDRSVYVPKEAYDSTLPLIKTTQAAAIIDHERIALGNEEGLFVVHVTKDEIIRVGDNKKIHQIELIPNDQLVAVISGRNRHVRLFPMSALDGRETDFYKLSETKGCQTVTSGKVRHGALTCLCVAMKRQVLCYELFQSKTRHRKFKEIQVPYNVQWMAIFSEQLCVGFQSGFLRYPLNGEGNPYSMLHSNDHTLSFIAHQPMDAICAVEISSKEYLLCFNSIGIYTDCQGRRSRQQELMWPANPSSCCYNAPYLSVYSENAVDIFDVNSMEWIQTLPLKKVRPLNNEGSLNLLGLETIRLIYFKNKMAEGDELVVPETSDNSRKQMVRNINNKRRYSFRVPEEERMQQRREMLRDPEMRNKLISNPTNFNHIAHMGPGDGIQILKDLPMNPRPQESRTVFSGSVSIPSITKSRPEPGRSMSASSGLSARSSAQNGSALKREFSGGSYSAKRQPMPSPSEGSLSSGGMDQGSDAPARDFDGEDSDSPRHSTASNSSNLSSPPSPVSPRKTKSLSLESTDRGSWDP

[9] = target: T3, Inhibitor of nuclear factor kappa-B kinase subunit alpha (Homo sapiens) (UniProt O15111); test: Residual activity of IKKalpha at 0.1 uM by microplate scintillation counting
T3 sequence (whole entry): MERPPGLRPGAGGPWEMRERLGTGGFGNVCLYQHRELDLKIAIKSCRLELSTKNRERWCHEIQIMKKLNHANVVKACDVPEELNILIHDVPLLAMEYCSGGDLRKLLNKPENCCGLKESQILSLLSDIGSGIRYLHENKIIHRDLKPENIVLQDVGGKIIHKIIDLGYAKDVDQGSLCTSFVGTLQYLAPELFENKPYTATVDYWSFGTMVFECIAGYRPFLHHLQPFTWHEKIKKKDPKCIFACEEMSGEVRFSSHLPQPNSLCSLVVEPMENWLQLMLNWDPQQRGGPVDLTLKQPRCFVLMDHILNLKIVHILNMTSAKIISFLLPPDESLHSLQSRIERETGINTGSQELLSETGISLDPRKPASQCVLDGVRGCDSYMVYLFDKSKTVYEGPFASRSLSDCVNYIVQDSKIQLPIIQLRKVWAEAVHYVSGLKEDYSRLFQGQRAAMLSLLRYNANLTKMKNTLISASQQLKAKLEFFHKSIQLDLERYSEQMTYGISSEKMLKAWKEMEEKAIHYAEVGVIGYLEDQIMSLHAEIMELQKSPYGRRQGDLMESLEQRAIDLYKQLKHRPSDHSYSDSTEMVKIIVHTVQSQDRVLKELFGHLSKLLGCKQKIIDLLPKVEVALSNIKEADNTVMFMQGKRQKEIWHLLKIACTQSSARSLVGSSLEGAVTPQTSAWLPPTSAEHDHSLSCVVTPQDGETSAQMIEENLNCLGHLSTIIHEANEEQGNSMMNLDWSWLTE

[10] = target: Serine/threonine-protein kinase 33 (Homo sapiens) (UniProt Q9BYT3); test: Residual activity of STK33 at 1 uM by microplate scintillation counting
Sequence of Serine/threonine-protein kinase 33 (Homo sapiens) (Q9BYT3 whole entry, looked up): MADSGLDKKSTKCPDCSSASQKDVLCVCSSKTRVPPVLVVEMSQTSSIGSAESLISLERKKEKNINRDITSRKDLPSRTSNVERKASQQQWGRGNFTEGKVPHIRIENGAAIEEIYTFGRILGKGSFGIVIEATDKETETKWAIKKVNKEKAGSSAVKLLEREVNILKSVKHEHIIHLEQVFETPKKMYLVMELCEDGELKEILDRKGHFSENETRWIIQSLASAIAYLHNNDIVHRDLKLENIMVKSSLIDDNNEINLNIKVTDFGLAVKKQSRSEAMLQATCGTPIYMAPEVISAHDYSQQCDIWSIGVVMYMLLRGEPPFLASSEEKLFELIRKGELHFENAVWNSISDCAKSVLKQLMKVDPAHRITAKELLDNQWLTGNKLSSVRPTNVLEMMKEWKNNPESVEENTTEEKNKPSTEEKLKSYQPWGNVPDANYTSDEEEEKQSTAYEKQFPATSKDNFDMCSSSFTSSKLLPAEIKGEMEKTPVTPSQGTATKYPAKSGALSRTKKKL

Row | Structure (SMILES) | residual activity [1] | residual activity [2] | residual activity [3] | residual activity [4] | residual activity [5] | residual activity [6] | residual activity [7] | residual activity [8] | residual activity [9] | residual activity [10]
1 | COc1cc2c(Oc3ccc(-c4nc5ccccc5s4)cc3F)ncnc2cc1OCCCN1CCN(C)CC1 | 65% | 114% | 96% | 79% | 83% | 70% | 116% | 51% | 81% | 107%
2 | COc1cc2c(Oc3ccc(-c4nc5ccccc5s4)cc3)ncnc2cc1OCCCN1CCCC1 | 49% | 163% | 78% | 199% | 81% | 97% | 97% | 79% | 89% | 84%
3 | COc1cc2c(Oc3ccc(-c4nc5ccccc5s4)cc3)ncnc2cc1OCCCN1CCN(C)CC1 | 58% | 124% | 85% | 169% | 69% | 66% | 98% | 61% | 87% | 72%
